Legend:
Psoriasin (S100A7) = assay: Psoriasin ELISA of keratinocyte culture supernatant; format: cell-based, human; conditions: detected by ELISA, keratinocytes
Method: (§1) Human primary keratinocytes prepared from neonatal foreskin were obtained from (Lonza India) and cultured in serum-free keratinocyte growth medium with defined growth supplements (Invitrogen). Keratinocytes were cultured in 12 and 24 well tissue culture plates (BD Falcon) and treated cells at a confluence of 60-70%. Keratinocytes stimulation was performed in KGM with growth supplement and all experiment was done between passages 3 to 5.
Primary keratinocytes were seeded in 12-well plates (BD falcon). At 60 to 70% confluency, cells were treated with different concentration of Niacinamide for 72h. After 72 hours of incubation cell culture supernatant was stored at -70°C until used for ELISA. All ELISA reagents and samples were brought to room temperature prior to the assay. Cell culture supernatant samples were centrifuged at 5000 rpm for 10 minutes before use. 100 ↘l of undiluted sample of cell culture supernatant was used for checking the psoriasin level by using ELISA kit from CircuLex. The clinical samples were diluted in to 1:25 in dilution buffer and used 100↘l from diluted samples for checking psoriasin level by ELISA. In case of LL-37, 100 ↘l of undiluted samples from in vitro as well as clinical samples were used for checking LL-37 level by ELISA (Hycult Biotech).

LL-37 gene expression = LL-37 gene expression in primary keratinocytes, quantitative real-time PCR; format: cell-based; conditions: Homo sapiens, Keratinocyte, 18 hours, Niacinamide 1.22 mg/ml, control = 1.0, read-out: Fold change (LL-37 gene expression)
Method: as §1
(§2) NHEKs were cultured in 12-well plates (BD, Falcon) at 6 × 10^4 cells per well. After 24h of incubation, 50% media was replaced with fresh media. On day 3, cells were treated with different concentrations of Niacinamide with fresh media for 16-18 hours. Cells were harvested in RLT buffer (Qiagen) and samples were stored at -70°C till used for RNA isolation.
(§3) Total RNA was isolated using RNeasy Mini kit from Qiagen, according to the manufacturer's instructions. […]
(§4) Real time PCR was carried out using SYBR green method as per the manufacturer's (Bio-Rad, USA) instructions using thermal controlled Chromo4 machine (Bio-Rad, USA). 5µl of 1:10 diluted sample of cDNA and 1.5pmole of specific primers were used in each reaction by using a standardized PCR program (i.e. 94°C for 5 minutes followed by 50 cycles of "94°C for 15 seconds, 60°C for 30sec, 72°C for 30 seconds) and results were analysed by using 2^-ΔΔCT method. […]

E. coli = assay: Human volunteer study with Vaseline healthy white cream, E. coli count on forearm; format: in vivo; conditions: two times per day for 1 day, control 4.3
Method: An experiment using the following protocol was conducted: • 1. Volunteers were given Lux™ soap for use and asked not to use any other soap or moisturizers on their forearm for 7 days before the start of the study. • 2. Volunteer were be asked to apply Vaseline™ healthy white base cream and Vaseline™ healthy white formulated with Niacinamide (1%, 2% and 3%) at various spots on the forearm. • 3. Volunteers were asked to repeat […] for two times per day for 1 day, morning after bath and night just before sleep. The volunteers were asked not to wash the forearms after application of formulations at night. • 4. On day 2, the forearms were washed by the investigator with a non-antibacterial soap bar and asked the volunteers to wait for 6 hours under controlled conditions (24 ±2°C and 45%±5% RH) • 5. After 6 hours of waiting, ∼10^6 E. coli were applied on the forearm to each spot separately. The contact time of E. coli on skin was 15 minutes. • 6. After 15 minutes, the sample was extracted from the forearm using the cup-rod method. • 7. E. coli was counted using standard microbiological method.

S100-A9 = assay: AMP secretion by primary keratinocytes, mass spectrometry of secretome (PSM); format: cell-based; conditions: Niacinamide 1mg/ml, 72 hours; control sample 2
Method: (§5) The following procedure was used to determine the AMPs induced as a consequence of niacinamide on keratinocte cells. • 1. Primary keratinocytes were seeded in 12 well plates with 1 ml of KGM complete media. (Seeded 60,000 cells/well at Passage-4). • 2. Plates were incubated in the CO2 incubator for 48 hours. • 3. After 48 hours of incubation, cells were treated with and without Niacinamide 1mg/ml concentration in duplicate wells (fresh media was used for treatment). • 4. After 72 hours of incubation, cell culture supernatant was transferred in to 1.5 ml eppendorf tubes respectively. • 5. Samples were then passed through 20 kDa cutoff filters to remove high molecular weight proteins. • 6. Eluted samples, containing <20kDa proteins were transferred to 15ml sterile centrifuge tubes. • 7. Then, chilled acetone (HPLC grade) was added to the eluted samples (1 ml of sample:4ml of acetone) • 8. Tubes were transferred to -20°C for 24 hours to precipitate the proteins. • 9. After 24 hours, tubes were centrifuged at 14000g for 40 minutes at 4°C. • 10. The supernatant was discarded and the protein pellet was analysed using mass spectrometry for proteins.
(§6) The increased level of secretion of AMPs is measured by a PSM value (a peptide spectrum match scoring function) which is a relative measure of abundance of the peptide in the secretome. Table - 5

Lactoferrin = assay: as above; format: cell-based; conditions: Niacinamide 1mg/ml, 72 hours; control sample 1
Method: as §5, §6

S-100-A8 = assay: as above; format: cell-based; conditions: Niacinamide 1mg/ml, 72 hours; control sample 1
Method: as §5, §6

Lipocalin -2 = assay: as above; format: cell-based; conditions: Niacinamide 1mg/ml, 72 hours; control sample 1
Method: as §5, §6

Lipocalin-1 = assay: as above; format: cell-based; conditions: Niacinamide 1mg/ml, 72 hours; control sample 0
Method: as §5, §6

Elafin = assay: as above; format: cell-based; conditions: Niacinamide 1mg/ml, 72 hours; control sample 1
Method: as §5, §6

S-100-A11 = assay: as above; format: cell-based; conditions: Niacinamide 1mg/ml, 72 hours; control sample 2
Method: as §5, §6

Lysozyme C = assay: as above; format: cell-based; conditions: Niacinamide 1mg/ml, 72 hours; control sample 2
Method: as §5, §6

E. coli 10536 = assay: In vivo forearm study with lotion, residual E. coli by cup scrub method; conditions: lotion with 3% niacinamide, forearm of human volunteers, twice a day
Method: To confirm the findings from the in vitro experiments, the effect of Niacinamide on healthy human volunteers was tested in vivo. The volunteers were asked to apply a lotion with and without niacinamide (3%) on their forearm twice a day. After 7 days of application, the spots were extracted in PBS and ELISA was performed for detection of Psoriasin and LL-37 AMPs.
Glycerol stock of E. coli (10536) was inoculated in 30 ml TSB medium and culture was incubated overnight at 37°C in shaker incubator. Overnight culture was sub cultured on TSA slants and incubated overnight at 37°C then the slants were stored at 4°C (once in 15 days, slants were prepared freshly).
E. coli culture from slant was sub cultured on TSA plate and incubated overnight at 37°C. Overnight grown plate culture of E. coli was suspended in 6 to 7 ml of Sodium phosphate buffer (10mM). Density of culture was adjusted to 1 OD620 using spectrophotometer and used for clinical studies.
This technique is included in the ASTM method, E2752 - 10 (Standard guide for evaluation of residual effectiveness of antibacterial). The cup and rod were made up of Teflon and the area of the cup is 2.84 cm^2. The cup was used to hold the buffer on skin and rod was used for scrubbing, for better recovery of skin AMP and/or residual bacteria from skin. The duration of scrubbing was 1 min. […]

[1] = tested on: psoriasin gene expression; assay: Psoriasin gene expression in primary keratinocytes, quantitative real-time PCR; format: cell-based, human
Method: as §1, §2, §3, §4

NC(=O)c1cccnc1 [Niacinamide]
secretion of psoriasin AMP (in words) (Psoriasin (S100A7)): able to induce the secretion of psoriasin AMP
fold induction at 1220 µg/mL (LL-37 gene expression): 2.4
Residual log of E. Coli (E. coli; 1 % niacinamide in Vaseline healthy white cream): 3.5
Residual log of E. Coli (E. coli; 2% niacinamide in Vaseline healthy white cream): 3.0
Residual log of E. Coli (E. coli; 3% niacinamide in Vaseline healthy white cream): 2.7
PSM value with niacinamide treatment, S100-A9 (S100-A9): 4
PSM value with niacinamide treatment, Lactoferrin (Lactoferrin): 7
PSM value with niacinamide treatment, S-100-A8 (S-100-A8): 3
PSM value with niacinamide treatment, Lipocalin -2 (Lipocalin -2): 4
PSM value with niacinamide treatment, Lipocalin-1 (Lipocalin-1): 2
PSM value with niacinamide treatment, Elafin (Elafin): 3
PSM value with niacinamide treatment, S-100-A11 (S-100-A11): 5
PSM value with niacinamide treatment, Lysozyme C (Lysozyme C): 4
Residual log of E.Coli measured after one day of applying a composition (E. coli 10536; n= 28, basal 4.21, lotion without niacinamide 3.44): 2.31
Residual log of E.Coli measured after 7 days of applying a composition (E. coli 10536; n= 34, basal 4.41, lotion without niacinamide 3.56): 2.39
induction of psoriasin gene expression (in words) ([1]; 1.22 mg/ml): unable to induce psoriasin gene expression
fold induction at 1220 µg/mL ([1]; Homo sapiens, Keratinocyte, primary keratinocytes, 18 hours, Niacinamide 1.22 mg/ml, control = 1.0, read-out: Fold change (psoriasin gene expression)): 1.1

Reference: patent EP2742942A1, “Niacinamide for inducing generation of antimicrobial peptides” (Unilever N.V., priority 2012, dated 2014)
